We go through 16 compounds from patent US7598067B2, “PDEs and uses thereof” (priority 2000, dated 2009).

Assay [1] addresses T1, TbPDE2A (Trypanosoma brucei, UniProt Q9GTN9). In words: Phosphodiesterase assay, recombinant TbPDE2A in yeast lysates. The format is biochemical. The following applies: for effect on TbPDE2A activity in initial screening: 100 μM inhibitor, FIG. 26; for effect on TbPDE2A activity in initial screening / IC50 / IC50 for TbPDE2A (μM): 1 μM cAMP; for IC50 / IC50 for TbPDE2A (μM): full-size TbPDE2A, yeast lysates. Here is the method:
Yeast cell lysis. Yeast cells grown to mid- to end-log phase in SC-leu medium were collected, resuspended quickly in an original volume of prewarmed YPD medium and incubated for an additional 3 h at 30° C. in order to maximize protein expression. Cells were then harvested, washed once in water and once in HBBB buffer (Hank's balanced salt solution, containing 50 mM HEPES, pH 7.5). The washed cell pellet was suspended in an equal volume of HBB containing a protease inhibitor cocktail (Complete™, Roche Molecular Biochemicals). […] The cell lysate was clarified by centrifugation for 15 min at 15,000×g.
Phosphodiesterase Assay. […] […] Incubation was at 30° C. for 20 min. […] The precipitates were filtered through GF-C glass fiber fitters and filters were washed 3 times with ice-cold 1 mM NaOH/100 mM NaCl and were then dried and counted in liquid scintillation fluid (4 g/I omnifluor in toluene). All assays were carried out in triplicates and with three independent enzyme preparations. Controls for the efficiency of precipitation of cAMP and of AMP were always included. When assaying yeast cell extracts, control lysates from the PDE deletion strains transfected with empty vector was used as a background control. […] Inhibitors were dissolved in DMSO or ethanol, and the final concentration of the solvent never exceeded 1% in the assays reaction. Incubation times and enzyme concentrations were always adjusted so that less than 30% of the input substrate was hydrolyzed (2-5 μg total protein/100 μl assay). IC50 values were calculated by curve fitting on a four parameter dose-response model with variable slope, using the Prism software package of Graph Pad Inc., San Diego, Calif.

Another assay has as its target TbPDE2B (Trypanosoma brucei, UniProt Q9GQU6). In words: Phosphodiesterase assay, recombinant TbPDE2B expressed in HEK 293 cells. The format is biochemical. To be noted: for inhibition of recombinant TbPDE2B, in words: 1 μM [3H] cAMP, cGMP up to 200 μM. Here is the method:
Expression of T. brucei PDE. The ORF sequence for T. brucei PDE was subcloned into the pcDNA 3.1-TOPO vector (Invitrogen) according to the manual (Eukaryotic TOPO TA Cloning, version C) and plasmid DNA purified as described above. Human embryonic kidney 293 (HEK 293) cells were transfected with 12 μg of DNA in 60 μl of GenePORTER Transfection Reagent (Gene Therapy Systems, San Diego, Calif.) in 100-mm dishes and kept at 37° C. in 5% CO2 for 24 h. After this period fresh medium was added, and incubated under the same conditions for an additional 24 h. The same amount of pcDNA vector containing the sequence for the Green Fluorescent Protein (GFP) was transfected under identical conditions as a positive control for expression and as a negative control for PDE activity. Two plates were harvested at a time and homogenized with 1 ml of homogenization buffer containing 40 mM Tris-HCl, pH 7.5; 15 mM benzamidine; 15 mM 2-mercaptoethanol; 1 μg/ml pepstatin A; 1 μg/ml leupeptin and 5 mM EDTA. The cell suspension was immediately subjected to sonication (3×5 s) on ice. One volume of glycerol and 1 mg/ml of bovine serum albumin were added immediately to the homogenate.
Phosphodiesterase assay. […]

For assay [2], the system named is total PDE activity of trypanosomal cell extracts. The assay can be described thus: Total PDE activity in trypanosomal cell extracts. The format is biochemical, Trypanosoma brucei. An excerpt: Chemical validation of the TbPDE2 family as a potential drug target. One of the novel PDEs of the invention, TbPDE2A, was expressed as a recombinant protein and was characterized in detail (see above). […].

In a further assay the test system is PDE8A. In words: RT-PCR of PDE8A upregulation in CD3/CD28-stimulated CD4+ T cells. Type of assay: cell-based, human. To be noted: after CD3 and CD28 stimulation; FIG. 2C, 2D. Here is the method: Peripheral blood mononuclear cells were isolated from one human buffy coat (50 mL) by centrifugation through a layer of Ficoll-Paque Plus (2000 rpm, 30 min). Cells from the interface were removed and further purified by negative selection. CD4^+ T cells were usually isolated using a mixture of monoclonal antibodies (CD8, CD16, CD20, CD25 and HLADr) and goat anti-mouse IgG conjugated to magnetic beads according to the manufacturers protocol (Dynal, Lake Success, N.Y.). In some cases the CD4^+ T cell isolation kit was used in combination with the CD69 microbead kit (to remove activated cells). The labeled cells were removed by passage through a CS column (Miltenyi Biotec, Auburn, Calif.) placed in a magnetic field. The CD4^+ T cells passing through the column (at least 98% pure as determined by FACS analysis) were resuspended in RPMI/10% FBS/pen/strep/glutamine medium. The cells were stimulated as follows. Plates (Corning, Acton, Mass.) were precoated with goat anti-mouse IgG (10 μg/mL) for 2 hours at 37° C. and then washed with PBS. Cells were added to the plate together with CD3 (0.01 μg/mL) and CD28 (0.1 ug/mL) monoclonal antibodies and were harvested at various time points. The presence of PDE8A protein and RNA in activated CD4^+ T cells was detected by Western blotting and RT-PCR (see example 3). […]

A further assay has as its system PDE7A. The assay can be described thus: RT-PCR of PDE7A upregulation in CD3/CD28-stimulated CD4+ T cells. The format is cell-based, human. The following applies: 1 hour after stimulation; FIG. 2C.
Another assay concerns PDEs (Non-selective). To be noted: read-out: PDE Selectivity (IC50); cited from earlier work.
Assay [3] relates to PDE8A and PDE7A from hut78 cells. In words: PDE activity of monoQ HPLC fractions of hut78 cells, low Km peak. Type of assay: biochemical, human. The following applies: 0.01 μM cAMP; 10 μM rolipram or 100 μM IBMX. The protocol:
Since pure CD4^+ T cells can only be obtained in limited quantities, a human CD4^+ T cell line, hut78, (ATCC, Manassas, Va.), was used to study the activity of PDE8A. Hut78 cells (2×10^8) were resuspended in 20 mM Tris pH 7.5 buffer containing protease inhibitors (Boehringer Mannheim, Indianapolis, Ind.) and sonicated. The supernatant was removed after centrifugation at 15000×g for 10 minutes and applied to a Mono Q column attached to a Rainin Dynamax HPLC system (Ameryville, Calif.). A NaCl gradient (0-0.8M) was passed through the column and 250 uL fractions were collected. The fractions were assayed for activity using either 1 μM or 0.01 μM cAMP as substrate and the indicated concentration of inhibitor (FIG. 5). Western blot analysis was also performed (10 μL/well) using PDE7A or 8A antibodies.

Assay [4] relates to endogenous PDE activity from the HEK 293 cells. In words: Endogenous PDE activity from HEK 293 cells. Type of assay: biochemical, human. To be noted: lowest concentration used (10 μM). An excerpt:
Phosphodiesterase assay. […] […]

In assay [5] the target is T1, TbPDE2A. To be noted: Table 2, from reference; cited from earlier work.
For the next assay, the system named is PDE 4. The following applies: read-out: PDE Selectivity (IC50); cited from earlier work.
The test system of another assay is PDE 6. The following applies: read-out: PDE Selectivity (IC50); cited from earlier work.

“And” between values parts separate entries of the source, which are not always exact repeats. Equal entries are not always repeated. Where two headings read alike, the source gives them in different places.

TbPDE2B, sequence (Q9GQU6 entry or part of it): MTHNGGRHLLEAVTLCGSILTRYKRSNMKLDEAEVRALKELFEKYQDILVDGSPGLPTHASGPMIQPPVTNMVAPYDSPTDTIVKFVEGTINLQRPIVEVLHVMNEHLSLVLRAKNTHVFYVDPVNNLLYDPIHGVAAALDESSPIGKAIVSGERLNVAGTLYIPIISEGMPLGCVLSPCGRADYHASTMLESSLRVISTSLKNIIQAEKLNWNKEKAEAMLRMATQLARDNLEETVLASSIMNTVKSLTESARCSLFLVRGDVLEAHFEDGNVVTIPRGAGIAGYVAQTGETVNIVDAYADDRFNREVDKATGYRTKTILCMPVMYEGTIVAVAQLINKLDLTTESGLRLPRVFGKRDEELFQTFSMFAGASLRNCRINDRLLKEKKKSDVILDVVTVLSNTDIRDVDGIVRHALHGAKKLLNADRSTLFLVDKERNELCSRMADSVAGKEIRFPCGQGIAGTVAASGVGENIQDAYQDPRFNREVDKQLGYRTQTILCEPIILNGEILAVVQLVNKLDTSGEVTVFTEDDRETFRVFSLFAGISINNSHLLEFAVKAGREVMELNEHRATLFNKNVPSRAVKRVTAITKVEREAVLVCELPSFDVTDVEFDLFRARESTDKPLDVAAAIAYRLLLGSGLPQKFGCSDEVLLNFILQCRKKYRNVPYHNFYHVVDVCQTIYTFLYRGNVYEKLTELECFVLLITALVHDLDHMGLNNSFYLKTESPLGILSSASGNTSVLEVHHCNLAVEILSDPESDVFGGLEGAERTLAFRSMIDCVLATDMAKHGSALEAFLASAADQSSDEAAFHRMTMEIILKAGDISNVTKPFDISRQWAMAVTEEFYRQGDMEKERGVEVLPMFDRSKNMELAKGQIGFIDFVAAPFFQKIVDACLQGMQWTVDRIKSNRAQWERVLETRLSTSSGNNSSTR
T1 sequence (Q9GTN9 entry or part of it): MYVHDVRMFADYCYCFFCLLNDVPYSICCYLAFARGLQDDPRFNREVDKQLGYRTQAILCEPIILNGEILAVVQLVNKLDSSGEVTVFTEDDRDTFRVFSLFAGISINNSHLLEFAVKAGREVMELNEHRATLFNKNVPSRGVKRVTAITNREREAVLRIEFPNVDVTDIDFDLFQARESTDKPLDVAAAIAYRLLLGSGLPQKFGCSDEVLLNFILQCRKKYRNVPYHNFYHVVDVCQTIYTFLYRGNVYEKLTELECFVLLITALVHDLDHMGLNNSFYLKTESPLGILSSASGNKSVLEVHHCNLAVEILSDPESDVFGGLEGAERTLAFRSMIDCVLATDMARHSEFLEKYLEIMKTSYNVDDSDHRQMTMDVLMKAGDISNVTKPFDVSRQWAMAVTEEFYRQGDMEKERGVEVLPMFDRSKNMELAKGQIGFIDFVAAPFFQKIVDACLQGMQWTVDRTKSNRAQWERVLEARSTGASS

For the compound `COCc1nc2c([nH]1)c(=O)n(C)c(=O)n2CC(C)C` [8-methoxymethyl-IBMX], the “effect on TbPDE2A activity in initial screening” value (shortened to “effect on TbPDE2A activity”) at TbPDE2A [1] was “only very little effect”.

For the compound `CN(C(=O)CCCOc1ccc2[nH]c(=O)ccc2c1)C1CCCCC1` [Cilostamide, cilostamide], at TbPDE2A [1], the “effect on TbPDE2A activity” value is “only very little effect” and the IC50 is above 100 µM.

`CCCCCCC(C(C)O)n1cnc2c(N)ncnc21` (stereo not drawn) [EHNA, erythro-9-[3-(2-hydroxynonyl)]-adenine]: at TbPDE2B, the IC50 is above 180 µM and the “inhibition of recombinant TbPDE2B, in words” value (from here on “inhibition”) was “No IC50 could be obtained”.

With `CCOC(=O)c1cnc2c(cnn2CC)c1NN=C(C)C` [Etazolate, etazolate], the results for the IC50 on TbPDE2B and at TbPDE2A [1] were 127 µM and 30.3 µM, respectively.

In the case of `CCOc1ccc(Cc2nccc3cc(OCC)c(OCC)cc23)cc1OCC` [Ethaverine], the “total PDE activity” value in [2] was “marked, if not complete, reduction”. On TbPDE2A [1], the “effect on TbPDE2A activity” value was “significantly more effective as an inhibitor of TbPDE2A than its parent compound papaverine”; the IC50 was 14 µM and 14.2 µM; the “IC50 for TbPDE2A (μM)” value is recorded as “low micromolar range”.

In the case of `CC(C)(C)n1nc(-c2ccc(Cl)cc2)c2c(N)ncnc21` [PP2], the PDE8A upregulation result in the assay with PDE8A was “greatly reduced”. The PDE7A upregulation entry with PDE7A is recorded as “reduction of PDE7A upregulation”.

On to `COc1ccc(Cc2nccc3cc(OC)c(OC)cc23)cc1OC` [Papaverine, papaverine], for which, on TbPDE2B, the IC50 came to 304 ± 19 µM and the “inhibition” value is on record as “extremely low sensitivity”. Moreover, the IC50 in the assay on PDEs (Non-selective) is 5 to 25 µM. Moreover, the “effectiveness on TbPDE2A, in words” value at TbPDE2A [1] is recorded as “only marginal activity”.

As for `CC(=O)CCCCn1c(=O)c2c(ncn2C)n(C)c1=O` [Pentoxifylline, pentoxifylline], the IC50 is above 800 µM on TbPDE2B and 45 to 150 µM with PDEs (Non-selective). In addition, on TbPDE2B, the “inhibition” value is “extremely low sensitivity”.

Turning to `COc1ccc(C2CNC(=O)C2)cc1OC1CCCC1` (stereo not drawn) [Rolipram, rolipram], the “sensitivity of the PDE activity peak” value in assay [3] is “resistant”. The IC50 on TbPDE2B is above 300 µM; at TbPDE2A [5] it was above 100 µM; in the assay with PDE 4, […]; on TbPDE2A [1], above 100 µM. On TbPDE2B, the “inhibition” value is on record as “No inhibition”. In addition, the “endogenous PDE activity from the HEK 293 cells” value in assay [4] is reported as “completely abolished”. Further, the “effect on TbPDE2A activity” value at TbPDE2A [1] is recorded as “no appreciable activity”.

Take `CCCc1nn(C)c2c(=O)[nH]c(-c3cc(S(=O)(=O)N4CCN(C)CC4)ccc3OCC)nc12` [Sildenafil, sildenafil]: on TbPDE2B, the half-maximal inhibitory concentration (IC50) is above 100 µM and the “inhibition” value is given as “No IC50 could be obtained”. Moreover, the “total PDE activity” value in [2] is on record as “marked, if not complete, reduction”. Also, at TbPDE2A [1], the concentration for half-maximal inhibition (IC50) worked out at 9.4 µM and the “IC50 for TbPDE2A (μM)” value is given as “low micromolar range”.

As for `Cn1c(=O)c2[nH]cnc2n(C)c1=O` [Theophylline, theophylline], on TbPDE2A [1], the “effectiveness on TbPDE2A, in words” value was “not effective” and the IC50 is above 100 µM.

As to `COc1cc2c(cc1OC)-c1c/c(=N\c3c(C)cc(C)cc3C)n(C)c(=O)n1CC2` [Trequinsin], in [2], the “total PDE activity” value is “marked, if not complete, reduction”. In addition, at TbPDE2A [1], the IC50 stood at 5.4 µM and the “IC50 for TbPDE2A (μM)” value was “low micromolar range”.

Take `CCOC(=O)C1=C[C@]2(CC)CCCN3CCc4c(n1c1ccccc41)[C@@H]32` [Vinpocetine, vinpocetine]: at TbPDE2A [1], the “effect on TbPDE2A activity” value is listed as “only very little effect” and the IC50 is above 100 µM.

Regarding `CCCOc1ccccc1-c1nc2nn[nH]c2c(=O)[nH]1` [Zaprinast, zaprinast], the IC50 on TbPDE2B is above 50 µM; on TbPDE2A [5] it was 42.5 µM; with PDE 6 it was 0.15 µM; on TbPDE2A [1] it was 42.4 µM. Also, the “inhibition” value on TbPDE2B was “No IC50 could be obtained”. Moreover, the “effect on TbPDE2A activity” value at TbPDE2A [1] is on record as “only very little effect”.

For `Cc1[nH]c(=O)c(C#N)cc1-c1ccncc1` [milrinone], the “effect on TbPDE2A activity” value at TbPDE2A [1] is listed as “only very little effect”.

Turning to Ro 20-1724, the “inhibition” value at TbPDE2B is given as “No inhibition”. Moreover, the IC50 was above 300 µM on TbPDE2B (Substrate concentration 1 μM [3H]-cAMP, read-out: TbPDE2B IC50 (μM) (n = 3)) and 2 µM in the assay with PDE 4. In addition, the “endogenous PDE activity from the HEK 293 cells” value in [4] is “completely abolished”.
